According to patent US12667572B2, “Tricyclic compounds useful in the treatment of cancer, autoimmune and inflammatory disorders” (SCHRÖDINGER, INC., priority 2021, dated 2026):

These molecules were tested against T1, full-length MALT1 protein His-MALT1(1-824) (Homo sapiens, UniProt Q9UDY8) (assay: MALT1 protease assay, Assay 2 (1 nM MALT1, Ac-LRSR-AMC substrate)). Settings: 1 nM MALT1, 50 μM Ac-LRSR-AMC, 2 h pre-incubation, 8 hr incubation at RT.
T1 construct: full-length MALT1 protein His-MALT1(1-824); His (N); made in house; host or cells: baculovirus-infected insect cells
T1 sequence (Q9UDY8 1-824): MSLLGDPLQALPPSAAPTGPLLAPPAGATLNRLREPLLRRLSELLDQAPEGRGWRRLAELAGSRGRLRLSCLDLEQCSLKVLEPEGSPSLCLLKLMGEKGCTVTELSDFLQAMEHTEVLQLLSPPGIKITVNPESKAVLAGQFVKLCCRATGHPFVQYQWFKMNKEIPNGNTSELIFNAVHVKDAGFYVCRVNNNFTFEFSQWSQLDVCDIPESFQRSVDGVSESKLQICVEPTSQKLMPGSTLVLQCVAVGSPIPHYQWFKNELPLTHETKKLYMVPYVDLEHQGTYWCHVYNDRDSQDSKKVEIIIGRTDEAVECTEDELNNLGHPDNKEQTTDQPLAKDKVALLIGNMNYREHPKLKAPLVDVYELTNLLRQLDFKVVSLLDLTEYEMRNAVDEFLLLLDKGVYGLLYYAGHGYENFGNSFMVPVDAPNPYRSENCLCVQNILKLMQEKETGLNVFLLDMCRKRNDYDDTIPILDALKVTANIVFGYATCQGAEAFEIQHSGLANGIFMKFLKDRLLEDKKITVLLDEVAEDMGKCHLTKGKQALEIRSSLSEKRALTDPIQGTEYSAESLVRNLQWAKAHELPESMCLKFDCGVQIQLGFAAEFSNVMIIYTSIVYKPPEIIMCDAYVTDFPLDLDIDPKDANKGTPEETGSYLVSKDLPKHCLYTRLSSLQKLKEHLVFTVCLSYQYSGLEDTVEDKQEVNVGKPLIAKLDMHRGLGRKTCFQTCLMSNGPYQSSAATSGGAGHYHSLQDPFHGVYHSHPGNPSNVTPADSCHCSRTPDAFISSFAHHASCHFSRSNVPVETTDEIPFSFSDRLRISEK
Assay type: biochemical
In short: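 Full-length His-MALT1(1-824) from baculovirus-infected insect cells, pre-incubated with compound 2 h at RT (0.1% DMSO). Then 50 μM Ac-LRSR-AMC added. Buffer was Tris pH 7.5 with 600 mM sodium citrate, DTT, EDTA and BSA. Fluorescence (ex 355/em 460 nm) was read after 8 h at RT and normalized to high/low controls. IC50 from non-linear regression.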

Row | Structure (SMILES) | IC50 [nM]
1 | CC1(C)CC(C(=O)Nc2cnc(OC(F)F)c(C#N)n2)c2cnc3cc(F)nn3c21 (single isomer, unassigned) [Example 87, N-(6-cyano-5-(difluoromethoxy)pyrazin-2-yl)-2-fluoro-8,8-dimethyl-7,8-dihydro-6H-cyclopenta[e]pyrazolo[1,5-a]pyrimidine-6-carboxamide] | ≥ 1000
2 | CC1(C)CC(C(=O)Nc2cc(C(F)F)c(-n3cccn3)c(=O)[nH]2)c2cnc3cc(Cl)nn3c21 (centres unmarked) [Example 62, 2-chloro-N-(4-(difluoromethyl)-6-oxo-5-(1H-pyrazol-1-yl)-1,6-dihydropyridin-2-yl)-8,8-dimethyl-7,8-dihydro-6H-cyclopenta[e]pyrazolo[1,5-a]pyrimidine-6-carboxamide] | 10 to 100
3 | CC1(C)CC(C(=O)Nc2cc(C#N)c(OC(F)F)nn2)c2cnc3cc(F)nn3c21 (centres unmarked) [Example 85, N-(5-cyano-6-(difluoromethoxy)pyridazin-3-yl)-2-fluoro-8,8-dimethyl-7,8-dihydro-6H-cyclopenta[e]pyrazolo[1,5-a]pyrimidine-6-carboxamide] | 100 to 1000
4 | O=C(Nc1cnc(-n2nccn2)c(C(F)(F)F)c1)C1CC2(CC2)c2c1cnc1cc(Cl)nn21 (single isomer, unassigned) [Example 148, N-(6-(2H-1,2,3-triazol-2-yl)-5-(trifluoromethyl)pyridin-3-yl)-2-chloro-6,7-dihydrospiro[cyclopenta[e]pyrazolo[1,5-a]pyrimidine-8,1′-cyclopropane]-6-carboxamide] | ≥ 1000
5 | Cc1cn2ncc3c(c2n1)C(C)(C)C[C@H]3C(=O)Nc1cnc(-n2nccn2)c(Cl)c1 (single isomer, unassigned) [Example 188, N-(5-chloro-6-(2H-1,2,3-triazol-2-yl)pyridin-3-yl)-2,9,9-trimethyl-8,9-dihydro-7H-cyclopenta[d]imidazo[1,2-b]pyridazine-7-carboxamide] | 100 to 1000
6 | CC1(C)C[C@@H](C(=O)Nc2cnc(OC(F)F)c(C#N)c2)c2cnc3cc(F)nn3c21 (single isomer, unassigned) [Example 83, N-(5-cyano-6-(difluoromethoxy)pyridin-3-yl)-2-fluoro-8,8-dimethyl-7,8-dihydro-6H-cyclopenta[e]pyrazolo[1,5-a]pyrimidine-6-carboxamide] | 100 to 1000
7 | O=C(Nc1cnc(C(O)C(F)F)c(Cl)c1)C1CC2(CCC2)c2c1cnc1cc(F)nn21 (single isomer, unassigned) [Example 134, N-(5-chloro-6-(2,2-difluoro-1-hydroxyethyl)pyridin-3-yl)-2′-fluoro-6′,7′-dihydrospiro[cyclobutane-1,8′-cyclopenta[e]pyrazolo[1,5-a]pyrimidine]-6′-carboxamide] | ≥ 1000
8 | CC1(C)CC(C(=O)Nc2cnc(N=S(C)(C)=O)c(Cl)c2)c2cnc3cc(F)nn3c21 (single isomer, unassigned) [Example 131, N-(5-chloro-6-((dimethyl(oxo)-λ^6-sulfaneylidene)amino)pyridin-3-yl)-2-fluoro-8,8-dimethyl-7,8-dihydro-6H-cyclopenta[e]pyrazolo[1,5-a]pyrimidine-6-carboxamide] | ≥ 1000
9 | O=C(Nc1cnc(-n2nccn2)c(Cl)c1)C1CC2(CCC2)c2c1cnc1cc(F)nn21 (single isomer, unassigned) [Example 109, N-(5-chloro-6-(2H-1,2,3-triazol-2-yl)pyridin-3-yl)-2′-fluoro-6′,7′-dihydrospiro[cyclobutane-1,8′-cyclopenta[e]pyrazolo[1,5-a]pyrimidine]-6′-carboxamide] | ≥ 1000
10 | N#Cc1cc(NC(=O)[C@@H]2CC3(CCC3)c3c2cnc2cc(F)nn32)cnc1OC(F)F (single isomer, unassigned) [Example 102, N-(5-cyano-6-(difluoromethoxy)pyridin-3-yl)-2′-fluoro-6′,7′-dihydrospiro[cyclobutane-1,8′-cyclopenta[e]pyrazolo[1,5-a]pyrimidine]-6′-carboxamide] | 100 to 1000
11 | CC(C)(O)c1ncc(NC(=O)[C@H]2CC3(CCC3)c3c2cnc2cc(F)nn32)cc1C(F)(F)F (single isomer, unassigned) [Example 152, 2′-fluoro-N-(6-(2-hydroxypropan-2-yl)-5-(trifluoromethyl)pyridin-3-yl)-6′,7′-dihydrospiro[cyclobutane-1,8′-cyclopenta[e]pyrazolo[1,5-a]pyrimidine]-6′-carboxamide] | 100 to 1000
12 | CC1(C)CC(C(=O)Nc2cnc(OC(F)F)c(C#N)c2)c2cnc3cc(C(F)F)nn3c21 (single isomer, unassigned) [Example 126, N-(5-cyano-6-(difluoromethoxy)pyridin-3-yl)-2-(difluoromethyl)-8,8-dimethyl-7,8-dihydro-6H-cyclopenta[e]pyrazolo[1,5-a]pyrimidine-6-carboxamide] | 10 to 100
13 | O=C(Nc1cnc(-n2nccn2)c(C(F)(F)F)c1)[C@H]1C[C@]2(CCO2)c2c1cnc1cc(Cl)nn21 (racemic) [Example 117, (cis)-N-(6-(2H-1,2,3-triazol-2-yl)-5˜(trifluoromethyl)pyridin-3-yl)-2-chloro-6,7-dihydrospiro[cyclopenta[e]pyrazolo[1,5-a]pyrimidine-8,2′-oxetane]-6-carboxamide] | 10 to 100
14 | Cc1cc(NC(=O)C2CC(C)(C)c3c2cnc2cc(F)nn32)cnc1-c1cnn(C)c1 (centres unmarked) [Example 178, 2-fluoro-8,8-dimethyl-N-(5-methyl-6-(1-methyl-1H-pyrazol-4-yl)pyridin-3-yl)-7,8-dihydro-6H-cyclopenta[e]pyrazolo[1,5-a]pyrimidine-6-carboxamide] | ≥ 1000
15 | CC1(C)C[C@@H](C(=O)Nc2cnc(-n3ncc(C4COC4)n3)c(Cl)c2)c2cnc3cc(Cl)nn3c21 (single isomer, unassigned) [Example 110, 2-chloro-N-(5-chloro-6-(4-(oxetan-3-yl)-2H-1,2,3-triazol-2-yl)pyridin-3-yl)-8,8-dimethyl-7,8-dihydro-6H-cyclopenta[e]pyrazolo[1,5-a]pyrimidine-6-carboxamide] | 10 to 100
16 | Cc1cc(NC(=O)C2CC(C)(C)c3c2cnc2cc(F)nn32)cnc1N1CCC1 (centres unmarked) [Example 179, N-(6-(azetidin-1-yl)-5-methylpyridin-3-yl)-2-fluoro-8,8-dimethyl-7,8-dihydro-6H-cyclopenta[e]pyrazolo[1,5-a]pyrimidine-6-carboxamide] | ≥ 1000
17 | CC1(C)C[C@](C)(C(=O)Nc2cnc(-n3nccn3)c(Cl)c2)c2cnc3cc(Cl)nn3c21 (single isomer, unassigned) [Example 138, 2-chloro-N-(5-chloro-6-(2H-1,2,3-triazol-2-yl)pyridin-3-yl)-6,8,8-trimethyl-7,8-dihydro-6H-cyclopenta[e]pyrazolo[1,5-a]pyrimidine-6-carboxamide] | ≥ 1000
18 | CC1(C)C[C@H](C(=O)Nc2cc(C#N)c(OC(F)F)cn2)c2cnc3cc(F)nn3c21 (single isomer, unassigned) [Example 170] | 10 to 100
19 | Cc1cc(NC(=O)[C@@H]2CC(C)(C)c3c2cnc2cc(Cl)nn32)cnc1-n1nccn1 (single isomer, unassigned) [Example 180] | ≥ 1000
20 | CC1(C)CC(C(=O)Nc2cnc(C(=O)N3CCC3)c(C(F)(F)F)c2)c2cnc3cc(Cl)nn3c21 (centres unmarked) [Example 118, N-(6-(azetidine-1-carbonyl)-5˜(trifluoromethyl)pyridin-3-yl)-2-chloro-8,8-dimethyl-7,8-dihydro-6H-cyclopenta[e]pyrazolo[1,5-a]pyrimidine-6-carboxamide] | 10 to 100
21 | CC1(C)CC(C(=O)Nc2cnc(N3CCCC3=O)c(Cl)c2)c2cnc3cc(F)nn3c21 (centres unmarked) [Example 175, N-(5-chloro-6-(2-oxopyrrolidin-1-yl)pyridin-3-yl)-2-fluoro-8,8-dimethyl-7,8-dihydro-6H-cyclopenta[e]pyrazolo[1,5-a]pyrimidine-6-carboxamide] | ≥ 1000
22 | Cc1nnn(-c2ncc(NC(=O)[C@H]3CC(C)(C)c4c3cnc3cc(Cl)nn43)cc2Cl)n1 (single isomer, unassigned) [Example 140, 2-chloro-N-(5-chloro-6-(5-methyl-2H-tetrazol-2-yl)pyridin-3-yl)-8,8-dimethyl-7,8-dihydro-6H-cyclopenta[e]pyrazolo[1,5-a]pyrimidine-6-carboxamide] | 100 to 1000
23 | CC1(C)C[C@@H](C(=O)Nc2cnc(OC3CC3)c(C#N)c2)c2cnc3cc(F)nn3c21 (single isomer, unassigned) [Example 80, N-(5-cyano-6-cyclopropoxypyridin-3-yl)-2-fluoro-8,8-dimethyl-7,8-dihydro-6H-cyclopenta[e]pyrazolo[1,5-a]pyrimidine-6-carboxamide] | ≥ 1000
